According to patent publication EP2766361B1, “8-CARBAMOYL-2-(2,3-DISUBSTITUTED PYRID-6-YL)-1,2,3,4-TETRAHYDROISOQUINOLINE DERIVATIVES AS APOPTOSIS-INDUCING AGENTS FOR THE TREATMENT OF CANCER AND IMMUNE AND AUTOIMMUNE DISEASES” (priority 2011, dated 2013):

System: mouse FL5.12 cells transfected with Bcl-xL
Test: FL5.12 cellular assay (cell viability, CellTiter-Glo)
Format: cell-based
Conditions: IL-3-depleted, 3% FBS assay media, 24 hours, read-out: FL5.12 Bcl-xL, -IL3, EC50
Description: Cell viability was assayed using the CellTiter-Glo assay (Promega Corp., Madison, WI) according to the manufacturer instructions. Individual determinations were the result of duplicate values. […] Table 2. In Vitro Data

SMILES | EC50
N#Cc1c(-c2ccc(N3CCc4cccc(C(=O)Nc5nc6ccccc6s5)c4C3)nc2C(=O)O)cnn1CC12CC3CC(CC(C3)C1)C2 [Example 29, 6-[8-(1,3-benzothiazol-2-ylcarbamoyl)-3,4-dihydroisoquinolin-2(1H)-yl]-3-{5-cyano-1-[tricyclo[3.3.1.1^3,7]dec-1-ylmethyl]-1H-pyrazol-4-yl}pyridine-2-carboxylic acid] | 3 nM
O=C(Nc1nc2ccccc2s1)c1cccc2c1CN(c1ccc(-c3ccc(=O)n(CC45CC6CC(CC(C6)C4)C5)c3)c(C(=O)O)n1)CC2 [Example 85, 6-[8-(1,3-benzothiazol-2-ylcarbamoyl)-3,4-dihydroisoquinolin-2(1H)-yl]-6'-oxo-1'-(tricyclo[3.3.1.1^3,7]dec-1-ylmethyl)-1',6'-dihydro-3,3'-bipyridine-2-carboxylic acid] | 111 nM
Cc1c(-c2ccc(N3CCc4cccc(C(=O)Nc5nc6ccccc6s5)c4C3)nc2C(=O)O)cnn1CC12CC3CC(C)(CC(C)(C3)C1)C2 [Example 32, 6-[8-(1,3-benzothiazol-2-ylcarbamoyl)-3,4-dihydroisoquinolin-2(1H)-yl]-3-(1-{[3,5-dimethyltricyclo[3.3.1.1^3,7]dec-1-yl]methyl}-5-methyl-1H-pyrazol-4-yl)pyridine-2-carboxylic acid] | 1 nM
Cc1c(-c2ccc(N3CCc4cccc(C(=O)Nc5nc6ccccc6s5)c4C3)nc2C(=O)O)cccc1N(C)C(=O)C12CC3CC(CC(C3)O1)C2 [Example 68, 6-[8-(1,3-benzothiazol-2-ylcarbamoyl)-3,4-dihydroisoquinolin-2(1H)-yl]-3-{2-methyl-3-[methyl(2-oxatricyclo[3.3.1.1^3,7]dec-1-ylcarbonyl)amino]phenyl}pyridine-2-carboxylic acid] | 22 nM
COCCOCCOC12CC3CC(CC(Cn4ncc(-c5ccc(N6CCc7cccc(C(=O)Nc8nc9ccccc9s8)c7C6)nc5C(=O)O)c4C)(C3)C1)C2 [Example 63, 6-[8-(1,3-benzothiazol-2-ylcarbamoyl)-3,4-dihydroisoquinolin-2(1H)-yl]-3-[1-({3-[2-(2-methoxyethoxy)ethoxy]tricyclo[3.3.1.1^3,7]dec-1-yl}methyl)-5-methyl-1H-pyrazol-4-yl]pyridine-2-carboxylic acid] | 3 nM
Cc1c(-c2ccc(N3CCc4cccc(C(=O)Nc5nc6ccccc6s5)c4C3)nc2C(=O)O)nnn1CC12CC3CC(CC(C3)O1)C2 [Example 66, 6-[8-(1,3-benzothiazol-2-ylcarbamoyl)-3,4-dihydroisoquinolin-2(1H)-yl]-3-[5-methyl-1-(2-oxatricyclo[3.3.1.1^3,7]dec-1-ylmethyl)-1H-1,2,3-triazol-4-yl]pyridine-2-carboxylic acid] | 26 nM
Cc1c(-c2ccc(N3CCc4cccc(C(=O)Nc5nc6ccccc6s5)c4C3)nc2C(=O)NS(C)(=O)=O)cc(C#N)n1CC12CC3CC(CC(C3)C1)C2 [Example 35, N-(1,3-benzothiazol-2-yl)-2-{5-[5-cyano-2-methyl-1-(tricyclo[3.3.1.1^3,7]dec-1-ylmethyl)-1H-pyrrol-3-yl]-6-[(methylsulfonyl)carbamoyl]pyridin-2-yl}-1,2,3,4-tetrahydroisoquinoline-8-carboxamide] | 1 nM
Cc1c(-c2ccc(N3CCc4cccc(C(=O)Nc5nc6ccccc6s5)c4C3)nc2C(=O)O)ccnc1SC12CC3CC(CC(C3)C1)C2 [Example 74, 6-[8-(1,3-benzothiazol-2-ylcarbamoyl)-3,4-dihydroisoquinolin-2(1H)-yl]-3'-methyl-2'-(tricyclo[3.3.1.1^3,7]dec-1-ylsulfanyl)-3,4'-bipyridine-2-carboxylic acid] | 7 nM
N#Cc1c(NC23CC4CC(CC(C4)C2)C3)cccc1-c1ccc(N2CCc3cccc(C(=O)Nc4nc5ccccc5s4)c3C2)nc1C(=O)O [Example 47, 6-[8-(1,3-benzothiazol-2-ylcarbamoyl)-3,4-dihydroisoquinolin-2(1H)-yl]-3-{2-cyano-3-[tricyclo[3.3.1.1^3,7]dec-1-ylamino]phenyl}pyridine-2-carboxylic acid] | 54 nM
Cc1c(-c2ccc(N3CCc4cccc(C(=O)Nc5nc6cccnc6s5)c4C3)nc2C(=O)NS(C)(=O)=O)cnn1CC12CC3CC(CC(C3)C1)C2 [Example 75, 2-{6-[(methylsulfonyl)carbamoyl]-5-[5-methyl-1-(tricyclo[3.3.1.1^3,7]dec-1-ylmethyl)-1H-pyrazol-4-yl]pyridin-2-yl}-N-([1,3]thiazolo[5,4-b]pyridin-2-yl)-1,2,3,4-tetrahydroisoquinoline-8-carboxamide] | 3 nM
COC12CC3CC(CC(Cn4c(C#N)cc(-c5ccc(N6CCc7cccc(C(=O)Nc8nc9ccccc9s8)c7C6)nc5C(=O)O)c4C)(C3)C1)C2 [Example 58, 6-[8-(1,3-benzothiazol-2-ylcarbamoyl)-3,4-dihydroisoquinolin-2(1H)-yl]-3-(5-cyano-1-{[3-methoxytricyclo[3.3.1.1^3,7]dec-1-yl]methyl}-2-methyl-1H-pyrrol-3-yl)pyridine-2-carboxylic acid] | 0.3 nM
Cc1c(-c2ccc(N3CCc4cccc(C(=O)Nc5nc6ccccc6s5)c4C3)nc2C(=O)O)cnn1CC12CC3CC(C1)CC(OCC1CCOCC1)(C3)C2 [Example 53, 6-[8-(1,3-benzothiazol-2-ylcarbamoyl)-3,4-dihydroisoquinolin-2(1H)-yl]-3-(5-methyl-1-{[3-(tetrahydro-2H-pyran-4-ylmethoxy)tricyclo[3.3.1.1^3,7]dec-1-yl]methyl}-1H-pyrazol-4-yl)pyridine-2-carboxylic acid] | 4 nM
Cc1c(-c2ccc(N3CCc4cccc(C(=O)Nc5nc6ncccc6s5)c4C3)nc2C(=O)O)cnn1CC12CC3CC(CC(C3)C1)C2 [Example 30, 3-[5-methyl-1-(tricyclo[3.3.1.1^3,7]dec-1-ylmethyl)-1H-pyrazol-4-yl]-6-[8-([1,3]thiazolo[4,5-b]pyridin-2-ylcarbamoyl)-3,4-dihydroisoquinolin-2(1H)-yl]pyridine-2-carboxylic acid] | 49 nM
N#Cc1c(-c2ccc(N3CCc4cccc(C(=O)Nc5nc6ccccc6s5)c4C3)nc2C(=O)O)cccc1S(=O)(=O)C12CC3CC(CC(C3)C1)C2 [Example 60, 6-[8-(1,3-benzothiazol-2-ylcarbamoyl)-3,4-dihydroisoquinolin-2(1H)-yl]-3-[2-cyano-3-(tricyclo[3.3.1.1^3,7]dec-1-ylsulfonyl)phenyl]pyridine-2-carboxylic acid] | 55 nM
Cc1c(OCC23CC4CC(CC(C4)C2)C3)cccc1-c1ccc(N2CCc3cccc(C(=O)Nc4nc5ccccc5s4)c3C2)nc1C(=O)O [Example 21, 6-[8-(1,3-benzothiazol-2-ylcarbamoyl)-3,4-dihydroisoquinolin-2(1H)-yl]-3-{2-methyl-3-[tricyclo[3.3.1.1^3,7]dec-1-ylmethoxy]phenyl}pyridine-2-carboxylic acid] | 343 nM
Cc1c(-c2ccc(N3CCc4cccc(C(=O)Nc5cn6ncccc6n5)c4C3)nc2C(=O)O)cnn1CC12CC3CC(CC(C3)C1)C2 [Example 77, 6-[8-(imidazo[1,2-b]pyridazin-2-ylcarbamoyl)-3,4-dihydroisoquinolin-2(1H)-yl]-3-[5-methyl-1-(tricyclo[3.3.1.1^3,7]dec-1-ylmethyl)-1H-pyrazol-4-yl]pyridine-2-carboxylic acid] | 4 nM
COC12CC3CC(CC(Cn4ncc(-c5ccc(N6CCc7cccc(C(=O)Nc8nc9ccccc9s8)c7C6)nc5C(=O)NS(=O)(=O)C(F)(F)F)c4C)(C3)C1)C2 [Example 40, N-(1,3-benzothiazol-2-yl)-2-[5-(1-{[3-methoxytricyclo[3.3.1.1^3,7]dec-1-yl]methyl}-5-methyl-1H-pyrazol-4-yl)-6-{[(trifluoromethyl)sulfonyl]carbamoyl}pyridin-2-yl]-1,2,3,4-tetrahydroisoquinoline-8-carboxamide] | 47 nM
Cc1c(-c2ccc(N3Cc4c(C(=O)Nc5nc6ccccc6s5)cccc4C(C)(C)C3)nc2C(=O)O)cnn1CC12CC3CC(CC(C3)C1)C2 [Example 14, 6-[8-(1,3-benzothiazol-2-ylcarbamoyl)-4,4-dimethyl-3,4-dihydroisoquinolin-2(1H)-yl]-3-[5-methyl-1-(tricyclo[3.3.1.1^3,^7]dec-1-ylmethyl)-1H-pyrazol-4-yl]pyridine-2-carboxylic acid] | < 1 nM
Cc1c(-c2ccc(N3CCc4cccc(C(=O)Nc5nc6ccccc6s5)c4C3)nc2C(=O)O)nnn1CC12CC3CC(CC(C3)C1)C2 [Example 57, 6-[8-(1,3-benzothiazol-2-ylcarbamoyl)-3,4-dihydroisoquinolin-2(1H)-yl]-3-[5-methyl-1-(tricyclo[3.3.1.1^3,7]dec-1-ylmethyl)-1H-1,2,3-triazol-4-yl]pyridine-2-carboxylic acid] | 12 nM
Cc1c(-c2ccc(N3CCc4cccc(C(=O)Nc5nc6ccccc6s5)c4C3)nc2C(=O)O)cnn1CC1C2CC3CC(C2)CC1C3 (centres unmarked) [Example 62, 6-[8-(1,3-benzothiazol-2-ylcarbamoyl)-3,4-dihydroisoquinolin-2(1H)-yl]-3-[5-methyl-1-(tricyclo[3.3.1.1^3,7]dec-2-ylmethyl)-1H-pyrazol-4-yl]pyridine-2-carboxylic acid] | 0.8 nM
COC12CC3CC(CC(Cn4ncc(-c5ccc(N6CCc7cccc(C(=O)Nc8nc9ccccc9s8)c7C6)nc5C(=O)NS(=O)(=O)C5CC5)c4C)(C3)C1)C2 [Example 41] | 0.4 nM
Cc1c(-c2ccc(N3CCc4cccc(C(=O)Nc5nc6cnccc6s5)c4C3)nc2C(=O)O)cnn1CC12CC3CC(CC(C3)C1)C2 [Example 31, 3-[5-methyl-1-(tricyclo[3.3.1.1^3,7]dec-1-ylmethyl)-1H-pyrazol-4-yl]-6-[8-([1,3]thiazolo[4,5-c]pyridin-2-ylcarbamoyl)-3,4-dihydroisoquinolin-2(1H)-yl]pyridine-2-carboxylic acid] | 5 nM
O=C(Nc1nc2ccccc2s1)c1cccc2c1CN(c1ccc(-c3ccnc(OCC45CC6CC(CC(C6)C4)C5)c3)c(C(=O)O)n1)CC2 [Example 25, 6-[8-(1,3-benzothiazol-2-ylcarbamoyl)-3,4-dihydroisoquinolin-2(1H)-yl]-2'-(tricyclo[3.3.1.1^3,7]dec-1-ylmethoxy)-3,4'-bipyridine-2-carboxylic acid] | > 1000 nM
